# Columns and labels:
# soybean = test: Test B pre/postemergence soybean; assay type: in vivo, Glycine max
# How it was run: (§1)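 Herbicidal effect was estimated by eye on a ten-point control scale after plants spent twelve to sixteen days in a greenhouse following soil or foliar treatment. Foliar sprays targeted plants at one to four leaves; all doses were formulated in a non-phytotoxic solvent with surfactant.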
# pigweed = test: Test B pre/postemergence pigweed; assay type: in vivo, Amaranthus retroflexus
# How it was run: as §1
# smallflower flatsedge = test: Test B flood test smallflower flatsedge; assay type: in vivo, Cyperus difformis
# How it was run: (§2)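 Flood test on plants grown to the 2-leaf stage; treated plants kept in greenhouse twelve to sixteen days, then visually rated against controls on a 0 (no effect) to 10 (complete control) scale.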
# sugar beet = test: Test B pre/postemergence sugar beet; assay type: in vivo, Beta vulgaris
# How it was run: as §1
# rice = test: Test B flood test rice; assay type: in vivo, Oryza sativa
# How it was run: as §2
# giant foxtail = test: Test B pre/postemergence giant foxtail; assay type: in vivo, Setaria faberii
# How it was run: as §1
# rape = test: Test B pre/postemergence rape; assay type: in vivo, Brassica napus
# How it was run: as §1
# corn = test: Test B pre/postemergence corn; assay type: in vivo, Zea mays
# How it was run: as §1
# wheat = test: Test B pre/postemergence wheat; assay type: in vivo, Triticum aestivum
# How it was run: as §1
# morningglory = test: Test B pre/postemergence morningglory; assay type: in vivo, Ipomoea hederacea
# How it was run: as §1
# velvetleaf = test: Test B pre/postemergence velvetleaf; assay type: in vivo, Abutilon theophrasti
# How it was run: as §1
# crabgrass = test: Test B pre/postemergence crabgrass; assay type: in vivo, Digitaria sanguinalis
# How it was run: as §1
# wild oat = test: Test B pre/postemergence wild oat; assay type: in vivo, Avena fatua
# How it was run: as §1
# cocklebur = test: Test B pre/postemergence cocklebur; assay type: in vivo, Xanthium strumarium
# How it was run: as §1
# duck salad = test: Test B flood test duck salad; assay type: in vivo, Heteranthera limosa
# How it was run: as §2
# purple nutsedge = test: Test B pre/postemergence purple nutsedge; assay type: in vivo, Cyperus rotundus
# How it was run: as §1
# [1] = Postemergence, Rate 62 g/ha, scale 0 to 10, 0 is no effect, 10 is complete control
# [2] = Preemergence, Rate 125 g/ha, scale of 0 to 10 where 0 is no effect and 10 is complete control
# [3] = Preemergence, Rate 250 g/ha, scale 0 (no effect) to 10 (complete control)
# [4] = Rate 62 g/ha, Preemergence, scale 0 to 10
# [5] = Rate 250 g/ha, Postemergence, scale 0 to 10, 0 is no effect, 10 is complete control
# [6] = Rate 500 g/ha, Postemergence, scale 0 to 10, 0 is no effect, 10 is complete control
# [7] = Rate 500 g/ha, Preemergence, scale 0 to 10 (0 no effect, 10 complete control)
# [8] = Postemergence, Rate 125 g/ha, scale of 0 to 10 where 0 is no effect and 10 is complete control
# [9] = Pre-emergence, Rate 62 g/ha, scale 0 to 10, 0 is no effect, 10 is complete control
# [10] = Rate 125 g/ha, Pre-emergence section (flood test species), scale 0 to 10, 0 no effect, 10 complete control
# [11] = Rate 250 g/ha, Pre-emergence (flood test species), scale 0 to 10, 0 is no effect, 10 is complete control
# [12] = Rate 500 g/ha, Pre-emergence section of Table B, 0 to 10 scale (0 no effect, 10 complete control)
smiles,measurement,setting,value
CC(C)N(C(=O)n1oc(=O)n(CC2=NOCCO2)c1=O)c1ccc(F)cc1F [Compound 758],"Plant response rating, Soybean",soybean; [1],4
same,"Plant response rating, Soybean",soybean; [2],0
same,Soybean plant response rating,soybean; [3],0
same,Soybean plant response rating,soybean; [4],0
same,Soybean plant response rating,soybean; [5],5
same,Soybean plant response rating,soybean; [6],5
same,Soybean plant response rating,soybean; [7],0
same,"Plant response rating, Redroot pigweed",pigweed; [1],7
same,Redroot pigweed plant response rating,pigweed; [8],8
same,"Plant response rating, Redroot pigweed",pigweed; [2],8
same,Redroot pigweed plant response rating,pigweed; [3],8
same,Redroot pigweed plant response rating,pigweed; [4],8
same,Redroot pigweed plant response rating,pigweed; [5],8
same,Redroot pigweed plant response rating,pigweed; [6],8
same,Redroot pigweed plant response rating,pigweed; [7],10
same,S. Flatsedge plant response rating,smallflower flatsedge; [9],0
same,S. Flatsedge plant response rating,smallflower flatsedge; [10],0
same,S. Flatsedge plant response rating,smallflower flatsedge; [11],0
same,S. Flatsedge plant response rating,smallflower flatsedge; [12],0
same,"Plant response rating, Sugarbeets",sugar beet; [1],0
same,"Plant response rating, Sugarbeets",sugar beet; [2],7
same,Sugarbeets plant response rating,sugar beet; [3],7
same,Sugarbeets plant response rating,sugar beet; [4],5
same,Sugarbeets plant response rating,sugar beet; [5],3
same,Sugarbeets plant response rating,sugar beet; [6],8
same,Sugarbeets plant response rating,sugar beet; [7],8
same,Rice plant response rating,rice; [9],0
same,Rice plant response rating,rice; [10],0
same,Rice plant response rating,rice; [11],0
same,Rice plant response rating,rice; [12],0
same,"Plant response rating, Giant foxtail",giant foxtail; [1],8
same,Giant foxtail plant response rating,giant foxtail; [8],9
same,"Plant response rating, Giant foxtail",giant foxtail; [2],9
same,Giant foxtail plant response rating,giant foxtail; [3],10
same,Giant foxtail plant response rating,giant foxtail; [4],9
same,Giant foxtail plant response rating,giant foxtail; [5],9
same,Giant foxtail plant response rating,giant foxtail; [6],9
same,Giant foxtail plant response rating,giant foxtail; [7],10
same,"Plant response rating, Rape",rape; [1],0
same,Rape plant response rating,rape; [8],0
same,"Plant response rating, Rape",rape; [2],4
same,Rape plant response rating,rape; [3],4
same,Rape plant response rating,rape; [4],0
same,Rape plant response rating,rape; [5],0
same,Rape plant response rating,rape; [6],2
same,Rape plant response rating,rape; [7],8
same,"Plant response rating, Corn",corn; [1],0
same,Corn plant response rating,corn; [8],0
same,"Plant response rating, Corn",corn; [2],0
same,Corn plant response rating,corn; [4],0
same,Corn plant response rating,corn; [5],0
same,Corn plant response rating,corn; [6],3
same,Corn plant response rating,corn; [7],3
same,"Plant response rating, Wheat",wheat; [1],0
same,"Plant response rating, Wheat",wheat; [2],5
same,Wheat plant response rating,wheat; [3],5
same,Wheat plant response rating,wheat; [4],4
same,Wheat plant response rating,wheat; [5],5
same,Wheat plant response rating,wheat; [6],6
same,Wheat plant response rating,wheat; [7],7
same,"Plant response rating, Morningglory",morningglory; [1],2
same,Morningglory plant response rating,morningglory; [8],4
same,"Plant response rating, Morningglory",morningglory; [2],0
same,Morningglory plant response rating,morningglory; [3],0
same,Morningglory plant response rating,morningglory; [4],0
same,Morningglory plant response rating,morningglory; [5],4
same,Morningglory plant response rating,morningglory; [6],8
same,Morningglory plant response rating,morningglory; [7],0
same,"Plant response rating, Velvetleaf",velvetleaf; [1],5
same,"Plant response rating, Velvetleaf",velvetleaf; [2],4
same,Velvetleaf plant response rating,velvetleaf; [3],4
same,Velvetleaf plant response rating,velvetleaf; [4],2
same,Velvetleaf plant response rating,velvetleaf; [5],6
same,Velvetleaf plant response rating,velvetleaf; [6],7
same,Velvetleaf plant response rating,velvetleaf; [7],7
same,"Plant response rating, Crabgrass",crabgrass; [1],2
same,Crabgrass plant response rating,crabgrass; [8],3
same,"Plant response rating, Crabgrass",crabgrass; [2],9
same,Crabgrass plant response rating,crabgrass; [3],10
same,Crabgrass plant response rating,crabgrass; [4],9
same,Crabgrass plant response rating,crabgrass; [5],8
same,Crabgrass plant response rating,crabgrass; [6],9
same,Crabgrass plant response rating,crabgrass; [7],10
same,"Plant response rating, Wild oats",wild oat; [1],0
same,"Plant response rating, Wild oats",wild oat; [2],8
same,Wild oats plant response rating,wild oat; [3],8
same,Wild oats plant response rating,wild oat; [4],5
same,Wild oats plant response rating,wild oat; [5],1
same,Wild oats plant response rating,wild oat; [6],2
same,Wild oats plant response rating,wild oat; [7],9
same,"Plant response rating, Cocklebur",cocklebur; [1],0
same,Cocklebur plant response rating,cocklebur; [8],0
same,"Plant response rating, Cocklebur",cocklebur; [2],0
same,Cocklebur plant response rating,cocklebur; [3],0
same,Cocklebur plant response rating,cocklebur; [4],0
same,Cocklebur plant response rating,cocklebur; [5],4
same,Cocklebur plant response rating,cocklebur; [6],4
same,Cocklebur plant response rating,cocklebur; [7],0
same,Ducksalad plant response rating,duck salad; [9],0
same,Ducksalad plant response rating,duck salad; [10],0
same,Ducksalad plant response rating,duck salad; [11],0
same,Ducksalad plant response rating,duck salad; [12],0
same,"Plant response rating, Nutsedge",purple nutsedge; [1],0
same,Nutsedge plant response rating,purple nutsedge; [8],0
same,"Plant response rating, Nutsedge",purple nutsedge; [2],0
same,Nutsedge plant response rating,purple nutsedge; [3],0
same,Nutsedge plant response rating,purple nutsedge; [4],0
same,Nutsedge plant response rating,purple nutsedge; [5],0
same,Nutsedge plant response rating,purple nutsedge; [6],0
